Source: US6337333B1, “Method of treating autoimmune disease with fludarabine-5′-monophosphate” (priority 1992, dated 2002)

Key:
[1] = tested on: human T-lymphoblastoid cell lines; details: cited from earlier work
B cell subtypes = details: 0.1-1.0 μg/ml for 48 hr, then 5 to 10 days SAC/rIL-2; data not shown
Procedure: B lymphocytes are incubated with drug (0.1-1.0 μg/ml) for 48 hr, followed by 5 to 10 days culture with SAC/rIL-2. The supernatant is then assayed at 5 and 10 days for IgM, IgG, and IgM-RF. Analyze the cells by flowcytometry at day 5 for CD20, CD20/CD5, CD5/sIgM, CD5/IgG, CD20/5/sIgM, and CD20/5 sIgG.

[2] = tested on: collagen-induced arthritis; details: 1 and 10 mg/kg/day injected days 0-10 or days 10-20
Procedure: The study involves two treatment schedules (47). In Schedule I, FLP is injected on a daily basis on days 0-10 at doses of 1 and 10 mg/kg/day. In Schedule II, FLP is injected at days 10-20 at 1 and 10 mg/kg/day. […] Clinical, histological, EIA, and flowcytometry are employed to follow the progress of the disease.

[3] = tested on: CD20 positive B lymphocytes; details: 48 hr culture with and without PWM, dose range 0.1-5.0 μg/ml, FIG. 3
Procedure: In FIG. 3, freshly isolated PBMC enriched for CD20 positive B lymphocytes (50% CD19, 45% CD20, 10% CD20/CD5 and 30% CD3/CD5) were cultured over 48 hr with various concentrations of FLP with and without PWM (5 μg/ml). The cells were washed once in C-BSS, and resuspended in 0.5 ml C-BCC with 5 μl of PI. Percent viable CD20 positive cells were determined by analysis on a FACScan using the LYSIS II software. Results are expressed as percent of total gated viable cells.
For viability determination of unfixed samples, 5 μl of a 500 mg/ml stock—solution of propidium iodide (PI) was added to the samples (0.5 ml)—immediately before acquisition.
A dose range of drug between 0.1-5.0 μg/ml was performed on PBMC enriched for B lymphocytes cultured for 48 hr with and without the mitogen PWM (FIG. 3). At the end of the culture period, the cells were washed, stained, and analyzed by flowcytometry for viable CD20 positive B lymphocytes.

B lymphocytes = details: SAC + rIL-2, drug present 0-72 hr, 72-144 hr or continuously; results not shown
Procedure: The B lymphocytes are cultured with SAC +rIL-2 under the following conditions:
1. 0 to 72 hr + drug (0.1-0.5 […]), wash, continue culture for additional 72 hr
2. 0 to 72 hr, wash, add drug for additional 72 hr culture
3. No drug for 6 days (wash at 3 days)
4. Drug in continuous culture for 6 days
At the end of the culture period, the supernatants are assayed for IgM, IgG, and IgM-RF.

T lymphocytes = assay: T lymphocyte proliferative response to mitogen after 18 hr drug pretreatment (3H-thymidine); format: cell-based, human; details: 18 hr pretreatment; for % Suppression: T lymphocytes
Procedure: In FIG. 1, freshly isolated PBMC were enriched for T and B lymphocytes using Nylon Wool (see Materials and Methods, Example A). The enriched lymphocyte subpopulations were then incubated for 18 hrs at 37° C. with various concentrations of drug. At the end of the pretreatment period, the cell samples were washed, adjusted to 2×10^5 viable cells/ml, and cultured at 1×10^4/well in flat (B cells) or round (T cells) bottomed 96 well microtiter plates in […]. The T cells were incubated for 3 days with PHA-P ([…]) or Con A (5 μg/ml) and the B cells were cultured for 6 days with either PWM (2 μg/ml) or SAC ({fraction (1/60,000)}). 1 μCi of ^3H-thymidine was added per well during the last 18 hr of culture. The wells were then harvested onto glass fiber filters, and counted in 7 ml of Cytoscint (ICN) on the LKB 1219 Rackbeta scintillation counter. The results are expressed as the mean cpm of triplicate wells.
Peripheral blood mononuclear cells obtained from normal donors as packed leukocyte preparations were enriched for T and B lymphocytes and pretreated with drug for 18 hrs prior to mitogen stimulation.
Peripheral blood mononuclear cells enriched for either T or B lymphocytes were incubated for 18 hrs in complete S-10 medium at 37° C. in 12×75 mm culture tubes at 5×10^5 cells/ml. The cells were then washed in S-10 and cultured in triplicate for either 3 (T lymphocytes) or 6 (B lymphocytes) days at 2.5×10^4/well in round bottom 96-well microtiter plates in S-10 medium at 37° C. and a 5% CO2 humidified atmosphere. The wells were pulsed with 1 μCi 3H-thymidine for the last 18 hr of culture, harvested onto glass fiber filters, and counted with 7 ml Cytoscint with a LKB Rackbeta scintillation counter. The results are reported as “percent Suppression”:
% Suppression={1−(mean cpm exp./mean cpm stim control)}×100

Structure (SMILES)	levels giving growth inhibition [1]	sensitivity of B cell subtypes to drug (B cell subtypes)	activity in arthritis model [2]	concentration at which effect on viable CD20 positive B lymphocytes becomes evident [3] [µg/mL]	part of the life cycle on which the drug has its primary effect (B lymphocytes)	suppression of T lymphocyte's ability to respond to mitogen (T lymphocytes; FIG. 1A)	% Suppression (T lymphocytes; CON A (5 μg/ml), BC5, 5 μg/ml of drug) [%]	% Suppression (T lymphocytes; CON A (5 μg/ml), BC6, 1 μg/ml of drug) [%]	% Suppression (T lymphocytes; CON A (5 μg/ml), BC6, 5 μg/ml of drug) [%]	% Suppression (T lymphocytes; CON A (5 μg/ml), BC7, 1 μg/ml of drug) [%]	% Suppression (T lymphocytes; CON A (5 μg/ml), BC7, 5 μg/ml of drug) [%]	% Suppression (T lymphocytes; CON A (5 μg/ml), leukocyte preparation BC5, 1 μg/ml of drug) [%]	% Suppression (T lymphocytes; PHA-P (5 μg/ml), BC5, 1 μg/ml of drug) [%]	% Suppression (T lymphocytes; PHA-P (5 μg/ml), BC5, 5 μg/ml of drug) [%]	% Suppression (T lymphocytes; PHA-P (5 μg/ml), BC6, 1 μg/ml of drug) [%]	% Suppression (T lymphocytes; PHA-P (5 μg/ml), BC6, 5 μg/ml of drug) [%]	% Suppression (T lymphocytes; PHA-P (5 μg/ml), BC7, 1 μg/ml of drug) [%]	% Suppression (T lymphocytes; PHA-P (5 μg/ml), BC7, 5 μg/ml of drug) [%]
Nc1nc(Cl)nc2c1ncn2[C@H]1C[C@H](O)[C@@H](CO)O1 [2CDA, 2-chlorodeoxyadenosine]	nanomolar levels																	
Nc1nc(F)nc2c1ncn2[C@@H]1O[C@H](COP(=O)(O)O)[C@@H](O)[C@@H]1O [FLP, fludarabine-5′-monophosphate]		CD5 positive B cells are found to be more sensitive	active following onset of disease	0.5	early stage B lymphocyte proliferation/differentiation	suppress	29	4	29	16	40	6	24	32	0	15	25	50
